In patent US9102697B2, “Trioxacarcins and uses thereof” (President and Fellows of Harvard College, priority 2010, dated 2015):
“Also recorded” adds a separate entry of the source.

Assays:
[1] = tested on: self-complementary duplex 12-mer d(AATTACGTAATT) (SEQ ID NO: 1); experiment: DNA alkylation detected by LC/MS; assay type: biochemical; details: for products from alkylated oligonucleotide after piperidine treatment: 1.0 M piperidine, 30 minutes at 95 °C; for covalent DNA-small molecule complex formed (LC/MS chromatogram): oligonucleotide 100 μM, 1 equiv compound, pH 7 buffer
Description: Next, we performed a set of experiments to determine whether the DC-45-A2 and dideoxy-DC-45-A2 complexes observed by DNA-gel electrophoresis were covalent or not. A liquid chromatography-mass spectrometry (LC/MS) method was developed for the detection of DNA oligonucleotides and covalent DNA-small molecule complexes. The mass spectrometer was used in a negative ion mode under conditions that had been optimized for the detection of single-stranded nucleic acids.
To solutions of the oligonucleotide d(AATTACGTAATT) (SEQ ID NO: 1) (100 μM) in pH 7 buffer were added, in three separate reaction vials, 1 equiv of DC-45-A2, 1 equiv of iso-DC-45-A2, or 1 equiv of dideoxy-DC-45-A2. After incubation for 24 h at 23° C., it was evident from the LC/MS chromatogram that a covalent DNA-small molecule complex had formed in both the DC-45-A2 and dideoxy-DC-45-A2 reaction mixtures but not in the iso-DC-45-A2 reaction mixture (FIG. 13). The alkylated single-stranded oligonucleotide eluted as a signal that was separate from the non-alkylated oligonucleotide. […] The absence of an iso-DC-45-A2 complex is consistent with the absence of reactivity of this compound towards the oligonucleotide under the alkylation conditions in the DNA-gel experiment described in the section above. The IC50 values of the three compounds in antiproliferative assays are also depicted in FIG. 13.
To test whether or not alkylation by DC-45-A2 and dideoxy-DC-45-A2 occurs at the N7 guanine site via the same epoxide opening mechanism observed for trioxacarcin A, we treated samples of alkylated oligonucleotide with piperidine to provide a product solution with a final concentration of 1.0 M in piperidine. […] This fragmentation is consistent with induced single strand cleavage of the type observed in the Maxam-Gilbert G-specific reaction that is associated with N7 guanine alkylation. In the present case, the guanine residue has been excised and the phosphates at the 3′ and 5′ positions have been eliminated to give the two fragment strands.
General Method: To a solution of dsDNA [ds(AATTACGTAATT) (SEQ ID NO: 1), 1.07 mM] in alkylation buffer (86.7 μL, see above for preparation of solutions) in a 1.7-mL centrifuge tube was added a solution of DC-45-A2 in DMSO (2.00 μL, 5 mM). The sample was votexed, then rotated end-over-end at 23° C. for 2 h. The sample was stored at 4° C. for 16 h. The sample was diluted to a concentration of 5 μM of dsDNA. A 10 μL sample of the diluted solution was injected into a short oligonucleotide column (gradient elution with […] TEAB buffer and methanol, flow rate 150 μL/min) and the column output was monitored by mass spectrometry in a negative ionization mode. The doubly deionized DC-45-A2-alkylated single-stranded DNA oligonucleotide (mass/charge=2079.4) was detected at 9.32 min.
To five separate solutions (designated as vials 1-5) of duplex DNA oligonucleotide d(AATTACGTAATT) (SEQ ID NO: 1) (0.72 mM [concentration of the DNA duplex] in alkylation buffer [see paragraph above for preparation], 13.9 μL, 10 nmol, 1 equiv) in alkylation buffer (84.1 μL) were added, respectively, DC-45-A2 (5.0 mM solution in dimethylsulfoxide, 2.0 μL, 10 nmol, 1.0 equiv, vials 1 and 2), iso-DC-45-A2 (5.0 mM solution in dimethylsulfoxide, 2.0 μL, 10 nmol, 1.0 equiv, vial 3), and dideoxy-DC-45-A2 (5.0 mM solution in dimethylsulfoxide, 2.0 μL, 10 nmol, 1.0 equiv, vials 4 and 5). The samples were vortexed, then rotated end-over-end at 23° C. After 23 h 30 min, vials 2 and 5 were diluted with piperidine (10 μL) and placed in a heating block at 95° C. After 30 min, vials 2 and 5 were cooled by centrifugation for 30 seconds (VWR Labnet C-1200 Minicentrifuge). After a total reaction time of 24 h, a 5-μL aliquot was removed from each of the five reaction mixtures. Each aliquot was diluted with alkylation buffer (95 μL, see above for preparation). […]

HeLa S3 cells = experiment: Cell proliferation assay (MTS/PMS), HeLa S3 cells; assay type: cell-based; details: HeLa cell line; 72 h at 37 °C
Description: (§1) Cell Culture. H460 cells and HeLa S3 cells were purchased from American Type Culture Collection (ATCC). H460 cells were maintained in RPMI-1640 medium supplemented with 10% fetal bovine serum (FBS). HeLa S3 cells were maintained in Dulbecco's Modified Eagle's Medium supplemented with 10% fetal bovine serum (FBS).
(§2) Cell Proliferation Assay. A solution of H460 or HeLa S3 cells (3000 cells/well) in growth medium was seeded onto a 96-well plate. The 96-well plate was incubated for 24 h at 37° C. Stock solutions of each compound were serially diluted and administrated to cells to achieve final concentrations of 38 nM to 83 μM (DC-45-A2 and iso-DC-45-A2) or 3.4 nM to 7.5 μM (dideoxy-DC-45-A2). After incubating at 37° C. for 72 h, 20 μL of MTS/PMS solution (Promega CellTiter 96® Aqueous Non-Radioactive Cell Proliferation Assay) was added to each well. After incubating at 37° C. for 3.5 h, the absorbance at 490 nm was recorded using a microplate reader (SpectraMax PLUS384) as a measure of viable cells. Percent growth inhibition was calculated for each well based upon the following formula: percent growth inhibition=100×(C−T)/C, where T is the absorbance of the well containing the test compound minus the average absorbance of wells containing media alone, and C is the average absorbance of wells containing vehicle control-treated cells minus the average absorbance of wells containing media alone. […]

H460 cells = experiment: Cell proliferation assay (MTS/PMS), H460 cells; assay type: cell-based; details: H460 cell line (printed H4609 in b565); 72 h at 37 °C
Description: as §1, §2

[2] = tested on: self-complementary duplex 12-mer d(AATTACGTAATT) (SEQ ID NO: 1); experiment: DNA alkylation detected by non-denaturing DNA-gel electrophoresis with in-gel fluorescence; assay type: biochemical; details: oligonucleotide 100 μM; at the lowest concentration of DC-45-A2 (printed 1 mM); 3 h at 23 °C
[3] = Storage and solution stability

Row | Compound | products from alkylated oligonucleotide after piperidine treatment [1] | relative abundance of the covalent complex ([1]; 24 h at 23 °C, compared with DC-45-A2 complex) | covalent DNA-small molecule complex formed (LC/MS chromatogram) ([1]; 24 h at 23 °C) | IC50, growth inhibition (HeLa S3 cells) | IC50, growth inhibition (H460 cells) | fluorescent DC-45-A2-DNA complex, in-gel fluorescence prior to ethidium bromide staining [2] | stability in solution ([3]; in solution at 23 °C) | stability on storage ([3]; stored neat at −25 °C with exclusion of light)
1 | Dideoxy-DC-45-A2 | pTAATT and AATTACp | greater relative abundance | had formed | – | – | – | – | –
2 | DC-45-A2 | pTAATT and AATTACp | – | had formed | micromolar; also recorded: submicromolar | micromolar; also recorded: submicromolar | clearly observed | slow decomposition over hours | stable
3 | COc1c2c(c(O)c3c4c(c(C)cc13)[C@H]1O[C@]3(C(OC)OC)O[C@H]1[C@](O)(O4)[C@@]31CO1)C(=O)[C@@H](O)C[C@@H]2O [iso-DC-45-A2, 11,12,13,15-tetraepi-DC-45-A2] | – | – | not | inactive | inactive | – | – | –
